Results reported in patent publication US11401278B2, “Macrocyclic indole derivatives” (The Broad Institute, Inc., priority 2017, dated 2022).
Where “and” joins values, the source holds several entries; their conditions need not be identical. Equal entries are not always repeated. Structures can show the parent of a compound that is named as a salt.

molecular target: MCL-1 (Homo sapiens (Human), UniProt Q07820, K194A/K197A/R201A); assay: Protein-protein interaction assay MCL-1/Noxa BH3 peptide (MCL-1 assay, TR-FRET); assay type: binding; conditions: MBP-MCL-1 / Noxa BH3 peptide, median
Procedure, shortened: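 MBP-fused MCL-1 (aa 173-329, 1 nM) was pre-incubated with compound for 10 min at 22° C, then biotinylated Noxa BH3 peptide (1 nM) was added with anti-MBP-Eu cryptate and streptavidin-XL665. Incubation was 1 h at 22° C, then overnight at 4° C, in Tris pH 7 buffer. The 665/620 nm ratio over 11 concentrations (0.1 nM-20 μM) gave IC50 by 4-parameter fit.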

MCL-1, sequence (Q07820 whole entry K194A/K197A/R201A, looked up, the tested form may be a part): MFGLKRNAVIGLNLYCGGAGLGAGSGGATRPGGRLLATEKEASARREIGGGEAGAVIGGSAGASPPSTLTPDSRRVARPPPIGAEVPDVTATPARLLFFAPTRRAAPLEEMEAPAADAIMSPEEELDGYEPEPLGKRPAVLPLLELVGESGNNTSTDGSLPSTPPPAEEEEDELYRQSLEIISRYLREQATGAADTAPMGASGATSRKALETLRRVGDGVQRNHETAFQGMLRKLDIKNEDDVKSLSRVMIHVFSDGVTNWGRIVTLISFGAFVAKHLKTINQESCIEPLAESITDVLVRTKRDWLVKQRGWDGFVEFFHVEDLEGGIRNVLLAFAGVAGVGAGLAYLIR

Compared with `CCc1c2c(nn1C)C(CCC1CCOCC1)N(C)S(=O)(=O)CCCn1c(C(=O)O)c(CCCOc3cccc4cc(F)ccc34)c3ccc(Cl)c-2c31` (single isomer, unassigned; enantiomer 2) [Example 62, (−)-4-chloro-3-ethyl-7-{3-[(6-fluoronaphthalen-1-yl)oxy]propyl}-2,14-dimethyl-15-[2-(oxan-4-yl)ethyl]-13,13-dioxo-10,11,12,13,14,15-hexahydro-2H-13lambda^6-pyrazolo[3′,4′:4,5][1,2,8]thiadiazacycloundecino[6,7,8-hi]indole-8-carboxylic acid (Enantiomer 2)], `CCNCC.CCc1c2c(nn1C)C(CCN1CCOCC1)N(C)S(=O)(=O)CCCn1c(C(=O)O)c(CCCOc3cccc4cc(F)ccc34)c3ccc(Cl)c-2c31` (single isomer, unassigned; enantiomer 2) [Example 76, 4-chloro-3-ethyl-7-{3-[(6-fluoronaphthalen-1-yl)oxy]propyl}-2,14-dimethyl-15-[2-(morpholin-4-yl)ethyl]-13,13-dioxo-10,11,12,13,14,15-hexahydro-2H-13lambda^6-pyrazolo[3′,4′:4,5][1,2,8]thiadiazacycloundecino[6,7,8-hi]indole-8-carboxylic acid-N-ethylethanamine Salt (Enantiomer 2)] is 190-fold lower in IC50: 110 nM for the first, 0.59 nM for the second.

Going from `COc1ccc(CN2Cc3nn(C)c(C)c3-c3c(Cl)ccc4c(CCCOc5cccc6cc(F)ccc56)c(C(=O)O)n(c34)CCCS2(=O)=O)c(OC)c1` (racemic) [Example 49, (rac)-4-chloro-14-(2,4-dimethoxybenzyl)-7-{3-[(6-fluoro-1-naphthyl)oxy]propyl}-2,3-dimethyl-11,12,14,15-tetrahydro-2H,10H-pyrazolo[3′,4′:4,5][1,2,8]thiadiazacycloundecino[6,7,8-hi]indole-8-carboxylic acid 13,13-dioxide] to `CCc1c2c(nn1C)CN(CC)S(=O)(=O)CCCn1c(C(=O)O)c(CCCOc3cccc4cc(F)ccc34)c3ccc(Cl)c-2c31` (racemic) [Example 56, (rac)-4-chloro-3,14-diethyl-7-{3-[(6-fluoro-1-naphthyl)oxy]propyl}-2-methyl-11,12,14,15-tetrahydro-2H,10H-pyrazolo[3′,4′:4,5][1,2,8]thiadiazacycloundecino[6,7,8-hi]indole-8-carboxylic acid 13,13-dioxide], the IC50 falls from 3.2 nM to 2.1 nM (1.5-fold).

Going from `Cc1c2c(nn1C)C(CCN1CCOCC1)N(C)S(=O)(=O)CCCn1c(C(=O)O)c(CCCOc3cccc4ccccc34)c3cccc-2c31` (single isomer, unassigned; enantiomer 2) [Example 46, 2,3,14-trimethyl-15-[2-(morpholin-4-yl)ethyl]-7-{3-[(naphthalen-1-yl)oxy]propyl}-13,13-dioxo-10,11,12,13,14,15-hexahydro-2H-13lambda^6-pyrazolo[3′,4′:4,5][1,2,8]thiadiazacycloundecino[6,7,8-hi]indole-8-carboxylic acid N-ethylethanamine Salt (Enantiomer 2)] to `Cc1c2c(nn1C)CN(CCN1CCOCC1)S(=O)(=O)CCCn1c(C(=O)O)c(CCCOc3cccc4ccccc34)c3cccc-2c31` (racemic) [Example 1, (rac)-2,3-Dimethyl-14-[2-(morpholin-4-yl)ethyl]-7-{3-[(naphthalen-1-yl)oxy]propyl}-13,13-dioxo-10,11,12,13,14,15-hexahydro-2H-13λ^6-pyrazolo[3′,4′:4,5][1,2,8]thiadiazacycloundecino-[6,7,8-hi]indole-8-carboxylic acid], the IC50 rises from 0.31 nM to 6.2 nM (20-fold). The first is the more potent here.

Compared with `CCc1c2c(nn1C)CN(CCN1CCOCC1)S(=O)(=O)CCCn1c(C(=O)O)c(CCCOc3cccc4cc(F)ccc34)c3ccc(Cl)c-2c31` [Example 77, (rac)-13-chloro-12-ethyl-1-(3-((6-fluoronaphthalen-1-yl)oxy)propyl)-11-methyl-8-(2-morpholinoethyl)-5,6,9,11-tetrahydro-4H,8H-pyrazolo[3′,4′:4,5][1]thia[2,8]diazacycloundecino[6,7,8-hi]indole-2-carboxylic acid 7,7-dioxide], `Cc1c2c(nn1C)C(CCN1CCOCC1)N(C)S(=O)(=O)CCCn1c(C(=O)O)c(CCCOc3cccc4cc(F)ccc34)c3ccc(Cl)c-2c31` (single isomer, unassigned; enantiomer 2) [Example 67, 4-chloro-7-{3-[(6-fluoronaphthalen-1-yl)oxy]propyl}-2,3,14-trimethyl-15-[2-(morpholin-4-yl)ethyl]-13,13-dioxo-10,11,12,13,14,15-hexahydro-2H-13lambda^6-pyrazolo[3′,4′:4,5][1,2,8]thiadiazacycloundecino[6,7,8-hi]indole-8-carboxylic acid (Enantiomer 2)] is 16-fold lower in IC50: 6.2 nM for the first, 0.4 nM for the second.

Going from `Cc1c2c(nn1C)CNS(=O)(=O)CCCn1c(C(=O)O)c(CCCOc3cccc4cc(F)ccc34)c3ccc(Cl)c-2c31` (racemic) [Example 50, (rac)-4-chloro-7-{3-[(6-fluoro-1-naphthyl)oxy]propyl}-2,3-dimethyl-11,12,14,15-tetrahydro-2H,10H-pyrazolo[3′,4′:4,5][1,2,8]thiadiazacycloundecino[6,7,8-hi]indole-8-carboxylic acid 13,13-dioxide] to `Cc1c2c(nn1C)CN(C)S(=O)(=O)CCCn1c(C(=O)O)c(CCCOc3cccc4ccccc34)c3ccc(Cl)c-2c31` (single isomer, unassigned; enantiomer 2) [Example 6, 4-Chloro-2,3,14-trimethyl-7-{3-[(naphthalen-1-yl)oxy]propyl}-13,13-dioxo-10,11,12,13,14,15-hexahydro-2H-13λ^6-pyrazolo[3′,4′:4,5][1,2,8]thiadiazacycloundecino[6,7,8-hi]indole-8-carboxylic acid-N-ethylethanamine salt (Enantiomer 2)], the IC50 rises from 0.74 nM to 11 nM (15-fold). The first is the more potent here.

Going from `CCc1c2c(nn1C)CN(C1CC1)S(=O)(=O)CCCn1c(C(=O)O)c(CCCOc3cccc4cc(F)ccc34)c3ccc(Cl)c-2c31` (single isomer, unassigned; enantiomer 1) [Example 54, (−)-4-chloro-14-cyclopropyl-3-ethyl-7-{3-[(6-fluoronaphthalen-1-yl)oxy]propyl}-2-methyl-13,13-dioxo-10,11,12,13,14,15-hexahydro-2H-13lambda^6-pyrazolo[3′,4′:4,5][1,2,8]thiadiazacycloundecino[6,7,8-hi]indole-8-carboxylic acid N-ethylethanamine Salt (Enantiomer 1)] to `Cc1c2c(nn1C)CNS(=O)(=O)CCCn1c(C(=O)O)c(CCCOc3cccc4cc(F)ccc34)c3ccc(Cl)c-2c31` (single isomer, unassigned; enantiomer 1) [Example 51, 4-chloro-7-{3-[(6-fluoronaphthalen-1-yl)oxy]propyl}-2,3-dimethyl-13,13-dioxo-10,11,12,13,14,15-hexahydro-2H-13lambda^6-pyrazolo[3′,4′:4,5][1,2,8]thiadiazacycloundecino[6,7,8-hi]indole-8-carboxylic acid (Enantiomer 1)], the IC50 rises from 0.64 nM to 0.96 nM (1.5-fold). The first is the more potent here.

`Cc1c2c(nn1C)C(N1CCOCC1)CCN(C)S(=O)(=O)CCCn1c(C(=O)O)c(CCCOc3cccc4cc(F)ccc34)c3ccc(Cl)c-2c31` (racemic) [Example 47, (rac)-15-chloro-1-(3-((6-fluoronaphthalen-1-yl)oxy)propyl)-8,13,14-trimethyl-11-(rac)-morpholino-5,6,9,10,11,13-hexahydro-4H,8H-pyrazolo[3′,4′:6,7][1]thia[2,10]diazacyclotridecino[8,9,10-hi]indole-2-carboxylic acid 7,7-dioxide (Mixture of Stereoisomers)] and `Cc1c2c(nn1C)C(CCN1CCOCC1)N(C)S(=O)(=O)CCCn1c(C(=O)O)c(CCCOc3cccc4cc(F)ccc34)c3ccc(Cl)c-2c31` (racemic) [Example 48, (rac)-4-chloro-7-{3-[(6-fluoro-1-naphthyl)oxy]propyl}-2,3,14-trimethyl-15-(rac)-[2-(morpholin-4-yl)ethyl]-11,12,14,15-tetrahydro-2H,10H-pyrazolo[3′,4′:4,5][1,2,8]thiadiazacycloundecino[6,7,8-hi]indole-8-carboxylic acid 13,13-dioxide (Mixture of Stereoisomers)] are within 1.5-fold of each other in IC50: 0.8 nM for the first, 0.93 nM for the second.

Compared with `CCc1c2c(nn1C)CN(C1CC1)S(=O)(=O)CCCn1c(C(=O)O)c(CCCOc3cccc4cc(F)ccc34)c3ccc(Cl)c-2c31` (racemic) [Example 53, (rac)-4-chloro-14-cyclopropyl-3-ethyl-7-{3-[(6-fluoro-1-naphthyl)oxy]propyl}-2-methyl-11,12,14,15-tetrahydro-2H,10H-pyrazolo[3′,4′:4,5][1,2,8]thiadiazacycloundecino[6,7,8-hi]indole-8-carboxylic acid 13,13-dioxide], `CCc1c2c(nn1C)CN(C)S(=O)(=O)CCCn1c(C(=O)O)c(CCCOc3cccc4c3CCCC4)c3ccc(F)c-2c31` (racemic) [Example 34, (rac)-12-Ethyl-13-fluoro-8,11-dimethyl-1-(3-((5,6,7,8-tetrahydronaphthalen-1-yl)oxy)propyl)-5,6,9,11-tetrahydro-4H,8H-pyrazolo[3′,4′:4,5][1]thia[2,8]diazacycloundecino[6,7,8-hi]indole-2-carboxylic acid 7,7-dioxide] is 1.9-fold higher in IC50: 1.7 nM for the first, 3.2 nM for the second. The first is the more potent here.

`Cc1c2c(nn1C)CN(CCN1CCOCC1)S(=O)(=O)CCCn1c(C(=O)O)c(CCCOc3cccc4ccccc34)c3cccc-2c31` (single isomer, unassigned; enantiomer 2) [Example 3, 2,3-Dimethyl-14-[2-(morpholin-4-yl)ethyl]-7-{3-[(naphthalen-1-yl)oxy]propyl}-13,13-dioxo-10,11,12,13,14,15-hexahydro-2H-13λ^6-pyrazolo[3′,4′:4,5][1,2,8]thiadiazacycloundecino-[6,7,8-hi]indole-8-carboxylic acid-N-ethylethanamine salt (Enantiomer 2)] gave an IC50 of 270 nM.

tested on: AMO-1; assay: Antiproliferation assay (Assay 7), AMO-1; assay type: cell-based; conditions: CellTiter-Glo, 72 hours, several values per example, read-out: Antiproli AMO-1 [M] IC50
Procedure, shortened: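 Cells were exposed to compound for 72 hours at 37° C. Viability was measured by CellTiter-Glo luminescence. A day 0 plate read at the start served as the time-zero reference.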

In the case of `CCc1c2c(nn1C)C(CCC1CCOCC1)N(C)S(=O)(=O)CCCn1c(C(=O)O)c(CCCOc3cccc4cc(F)ccc34)c3ccc(Cl)c-2c31` (single isomer, unassigned; enantiomer 2) [Example 62, (−)-4-chloro-3-ethyl-7-{3-[(6-fluoronaphthalen-1-yl)oxy]propyl}-2,14-dimethyl-15-[2-(oxan-4-yl)ethyl]-13,13-dioxo-10,11,12,13,14,15-hexahydro-2H-13lambda^6-pyrazolo[3′,4′:4,5][1,2,8]thiadiazacycloundecino[6,7,8-hi]indole-8-carboxylic acid (Enantiomer 2)], the IC50 is reported as 3.8e-06 M.

For `Cc1c2c(nn1C)C(CCN1CCOCC1)N(C)S(=O)(=O)CCCn1c(C(=O)O)c(CCCOc3cccc4ccccc34)c3cccc-2c31` (single isomer, unassigned; enantiomer 2) [Example 46, 2,3,14-trimethyl-15-[2-(morpholin-4-yl)ethyl]-7-{3-[(naphthalen-1-yl)oxy]propyl}-13,13-dioxo-10,11,12,13,14,15-hexahydro-2H-13lambda^6-pyrazolo[3′,4′:4,5][1,2,8]thiadiazacycloundecino[6,7,8-hi]indole-8-carboxylic acid N-ethylethanamine Salt (Enantiomer 2)], the IC50 was 5.3e-07 M and 5e-07 M.
